SMILES strings stand for the structures. ≈ marks a conversion by molar mass, not a printed value. Where “and” joins values, the source holds several entries; their conditions need not be identical. Equal entries are not always repeated. Where two headings read alike, the source gives them in different places.

Data set [1] has as its system kynurenic acid (KA) release from colon cancer HCT116 cells. In words: Extracellular kynurenic acid (KA) level of 5-HT-stimulated HCT116 cells (HPLC-fluorimetric). To be noted: for Effect on 5-HT-induced KA depletion: compounds 10 µg/mL, 5-HT 1 ng/mL, vs 5-HT group. The class given is cell-based, human. Here is the method:
(§1) HCT116 cell line (ATCC® CCL-247™) was cultured in DMEM (Euroclone) supplemented with 10% (v/v) heat-inactivated foetal bovine serum and 1.2% (v/v) penicillin G/streptomycin in 75 cm^2 tissue culture flask (n=5 individual culture flasks for each condition) as previously reported with or without serotonin treatment.
(§2) In the same condition, the kynurenic acid (KA) extracellular level was determined through a validated high performance liquid chromatography (HPLC)-fluorimetric method. To assess the cytotoxicity of synthesised compounds (VIa–o), a viability assay was performed on 96 microwell plates, using 3-(4,5-dimethylthiazol-2-yl)-2,5-diphenyltetrazolium bromide (MTT) test. Cells were incubated with compounds (10 µg/mL) for 24 h. An aliquot of 10 µL of MTT (5 mg/mL) was added to each well and incubated for 3 h. The viability of HCT116 cell line was evaluated both in basal conditions and after challenging with serotonin (5-HT) at 1 ng/mL. The anti-proliferative effects were compared to that induced by daunorubicin (0.1–20 µg/mL), used as reference drug.
Furthermore, compounds were assayed for evaluating modulatory effects on the extracellular level of KA, one of the two main kynurenine metabolites. Kynurenic acid was reported to be produced in multiple tissues, including brain and peripheral organs, although pharmacokinetic studies excluded any possibility of the peripheral pool to cross blood-brain barrier. In the brain, the kynurenine-derived kynurenic acid was described as a reliable marker of neuroprotection[28]^,[29], whereas it seems to be involved in inflammatory response at the peripheral level. Kynurenic acid was also described as an anti-proliferative factor towards colon, renal, and glioma cells. Specifically, this marker was considered as a potential chemopreventive agent against colon cancer[32]^,[33]. […] They were able in potentiating 5-HT-induced KA depletion, as well.

The subject of data set [2] is HCT116 cells. In words: Wound healing paradigm (spontaneous migration of HCT116 cells). It counts as cell-based, human. Conditions: compounds at their IC50 (VIe 3.09 µg/mL, VIk 2.73 µg/mL), 48 h after lesion of cell monolayer. Here is the method: The detailed protocol related to wound healing experimental model was described in our previous article.
Finally, considering their potencies in reducing HCT116 cell viability, compounds VIe and VIk were further studied in order to evaluate their effects on the spontaneous migration of HCT116 cells, through the wound healing paradigm. In this experiment, HCT116 cells were treated with compounds VIe and VIk at their respective IC50 values. The spontaneous migration of HCT116 cells was monitored in the 48 h following the experimental lesion of cell monolayer. The null effects on sponstaneous migration (Figure 6) rule out any involvement of the tested compounds in altering the invasion capacity of human colon cancer cells.

Data set [3] has as its system HCT116 cells. The data set can be described thus: MTT viability of HCT116 cells in basal conditions. The class given is cell-based, human. To be noted: for IC50: Homo sapiens. Here is the method: as §1, §2
Considering the effects induced by all compounds on HCT116 viability and KA production, compounds VIc, VIe and VIk were further assayed in order to deepen our knowledge about their anti-proliferative effects, in basal conditions. Specifically, HCT116 cells were stimulated with the aforementioned compounds, in a wider concentration range (0.1–20 µg/mL), with respect to the initial test. Additionally, the anti-proliferative effects induced by these compounds were compared with that of daunorubicin, used as anti-tumoral reference drug in the same concentration range.

[4] abbreviates: HCT-116, basal conditions, concentration range 0.1–20 µg/mL, MTT test, read-out: IC50 (HCT116 cell viability).

On to `COc1ccc(-c2ccc(=O)n(CC(=O)NN=Cc3ccccc3)n2)cc1F` [VIa, N’-benzylidene-2-(3-(3-fluoro-4-methoxyphenyl)-6-oxopyridazin-1(6H)-yl)acetohydrazide], for which the melting point was 132 °C. Moreover, the “Effect on 5-HT-induced KA depletion” value in data set [1] is recorded as “failed to prevent the inhibition of KA level”.
On to `COc1ccc(-c2ccc(=O)n(CC(=O)NN=Cc3ccccc3F)n2)cc1F` [VId, N’-(2-fluorobenzylidene)-2–(3-(3-fluoro-4-methoxyphenyl)-6-oxopyridazin-1(6H)-yl)acetohydrazide], for which the melting point was 222 °C and 224 °C.
Still for that read-out and setting: the value for `COc1ccc(-c2ccc(=O)n(CC(=O)NN=Cc3ccc(C)cc3)n2)cc1F` [VIg, N’-(4-methylbenzylidene)-2–(3-(3-fluoro-4-methoxyphenyl)-6-oxopyridazin-1(6H)-yl)acetohydrazide] was 220 °C.
The same measure, in the same setting: the value for `COc1ccc(-c2ccc(=O)n(CC(=O)NN=Cc3ccc([N+](=O)[O-])cc3)n2)cc1F` [VIi, N’-(4-nitrobenzylidene)-2–(3-(3-fluoro-4-methoxyphenyl)-6-oxopyridazin-1(6H)-yl)acetohydrazide] was 265 °C; that for `COc1ccc(-c2ccc(=O)n(CC(=O)NN=Cc3ccc(Br)cc3)n2)cc1F` [VIm, N’-(4-bromobenzylidene)-2–(3-(3-fluoro-4-methoxyphenyl)-6-oxopyridazin-1(6H)-yl)acetohydrazide] was 256 °C; that for `COc1ccc(-c2ccc(=O)n(CC(=O)NN=Cc3ccc(O)cc3)n2)cc1F` [VIn, N’-(4-hydroxybenzylidene)-2–(3-(3-fluoro-4-methoxyphenyl)-6-oxopyridazin-1(6H)-yl)acetohydrazide] was 251 °C.
As for `COc1ccc(-c2ccc(=O)n(CC(=O)NN=Cc3ccc(Cl)cc3Cl)n2)cc1F` [VIo, N’-(2,4-dichlorobenzylidene)-2–(3-(3-fluoro-4-methoxyphenyl)-6-oxopyridazin-1(6H)-yl)acetohydrazide], the melting point is 229 °C.
For the compound `COc1ccc(C=NNC(=O)Cn2nc(-c3ccc(OC)c(F)c3)ccc2=O)cc1` [VIh, N’-(4-methoxybenzylidene)-2–(3-(3-fluoro-4-methoxyphenyl)-6-oxopyridazin-1(6H)-yl)acetohydrazide], the melting point came out at 207 °C.
On to `COc1ccc(-c2ccc(=O)n(CC(=O)NN=Cc3ccccc3Br)n2)cc1F` [VIk, N’-(2-bromobenzylidene)-2–(3-(3-fluoro-4-methoxyphenyl)-6-oxopyridazin-1(6H)-yl)acetohydrazide], for which the melting point was found to be 189 °C. The “Effect on spontaneous migration of HCT116 cells” value with HCT116 cells [2] is on record as “null effects”. Besides, the concentration for half-maximal inhibition (IC50) with HCT116 cells [3] (setting [4]) is 2.73 µg/mL (≈ 5.94 µM).
As for `COc1ccc(-c2ccc(=O)n(CC(=O)NN=Cc3ccc(C(F)(F)F)cc3)n2)cc1F` [VIc, N’-(4-trifluoromethylbenzylidene)-2–(3-(3-fluoro-4-methoxyphenyl)-6-oxopyridazin-1(6H)-yl)acetohydrazide], the melting point came out at 252 °C. For the same compound, the “KA level compared to basal condition (CTR group)” value in data set [1] (compound 10 µg/mL, 5-HT-stimulated HCT116 cells) was “even higher compared to basal condition”. Besides, the “Effect on 5-HT-induced KA depletion” value in data set [1] is “able to blunt 5-HT-induced KA depletion”. In addition, in the data set with HCT116 cells [3] (setting [4]), the IC50 stood at 15 µg/mL (≈ 33.5 µM). The “IC50 fold higher compared to daunorubicin” value with HCT116 cells [3] (basal conditions, HCT116 viability) is listed as “at least 10 fold”.
As to `NCCc1c[nH]c2ccc(O)cc12` [Compound 5-HT, serotonin, reference compound], the “Effect of 5-HT on HCT116 cell viability” value in the data set on HCT116 cells [3] (5-HT 10 pg/mL – 1 µg/mL, MTT test) was “increased in a concentration-dependent manner”.
Regarding `COc1ccc(-c2ccc(=O)n(CC(=O)NN=Cc3ccc(C(C)C)cc3)n2)cc1F` [VIj, N’-(4-isopropylbenzylidene)-2–(3-(3-fluoro-4-methoxyphenyl)-6-oxopyridazin-1(6H)-yl)acetohydrazide], the melting point turned out to be 164 °C.
For `COc1cccc2c1C(=O)c1c(O)c3c(c(O)c1C2=O)C[C@@](O)(C(C)=O)C[C@@H]3O[C@H]1C[C@H](N)[C@H](O)[C@H](C)O1` [daunorubicin, reference compound], the IC50 in the data set with HCT116 cells [3] (HCT-116, read-out: IC50 (HCT116 cell viability)) turned out to be 1.39 µg/mL (≈ 2.63 µM).
Take `COc1ccc(-c2ccc(=O)n(CC(=O)NN=Cc3ccc(F)cc3)n2)cc1F` [VIb, N’-(4-fluorobenzylidene)-2–(3-(3-fluoro-4-methoxyphenyl)-6-oxopyridazin-1(6H)-yl)acetohydrazide]: the melting point came out at 238 °C. Besides, the “Effect on 5-HT-induced KA depletion” value in data set [1] was “failed to prevent the inhibition of KA level”.
Turning to `COc1ccc(-c2ccc(=O)n(CC(=O)NN=Cc3ccccc3OC)n2)cc1F` [VIf, N’-(2-methoxybenzylidene)-2–(3-(3-fluoro-4-methoxyphenyl)-6-oxopyridazin-1(6H)-yl)acetohydrazide], the melting point is 214 °C.
`COc1ccc(-c2ccc(=O)n(CC(=O)NN=Cc3ccccc3C)n2)cc1F` [VIe, N’-(2-methylbenzylidene)-2–(3-(3-fluoro-4-methoxyphenyl)-6-oxopyridazin-1(6H)-yl)acetohydrazide] returned a melting point of 210 °C. Also, the “Effect on spontaneous migration of HCT116 cells” value with HCT116 cells [2] is “null effects”. In addition, the IC50 with HCT116 cells [3] (setting [4]) was 3.09 µg/mL (≈ 7.83 µM).

As usually defined, the melting point is the temperature, or range, at which the solid turns liquid. Usually IC50 stands for the midpoint of a concentration-inhibition curve.
